Species: Rattus norvegicus
Assay: Open TG-GATES - Regimen: Single
Assay type: toxicity, organism-based, Sprague-Dawley
Set-up: regimen Single, gender Male, age 6 weeks
Conditions: in vivo, po, route gavage; for APTT / Bas / Eos / Fbg / Hb / Ht / Lym / MCH / MCHC / MCV / Mono / Neu / PT / Plat / RBC / Ret / WBC: tissue Blood; for KIDNEY_L / KIDNEY_R / KIDNEY_TOTAL: tissue Kidney; for LIVER: tissue Liver; for ALP / ALT / AST / BUN / CRE / DBIL / GLC / K / LDH / Na / PL / RALB / TBIL / TC / TG / TP / gamma-GTP: tissue Plasma
[1] = 0 mg/kg, 3 h, dose level Control
[2] = 0 mg/kg, 6 h, dose level Control
[3] = 0 mg/kg, 9 h, dose level Control
[4] = 0 mg/kg, 24 h, dose level Control

## CC(CCc1ccccc1)NCC(O)c1ccc(O)c(C(N)=O)c1 (stereo unspecified) [LABETALOL]
[1]
  TERMINAL_BW: 214.7 g
  APTT: 16 s
  Bas: 0%
  Eos: 1%
  Fbg: 279.6 mg/dL
  Hb: 13 g/dL
  Ht: 38.7%
  Lym: 80.6%
  MCH: 21.4 pg
  MCHC: 33.6%
  MCV: 63.6 fL
  Mono: 3.4%
  Neu: 14.2%
  PT: 13.1 s
  Plat: 108.8 x10_4/uL
  RBC: 608.8 x10_4/ul
  Ret: 8%
  WBC: 90.7 x10_2/uL
  KIDNEY_L: 0.9 g
  KIDNEY_R: 0.9 g
  KIDNEY_TOTAL: 1.8 g
  LIVER: 9.4 g
  ALP: 1611 IU/L
  ALT: 45.8 IU/L
  AST: 77.4 IU/L
  BUN: 11.8 mg/dL
  CRE: 0.2 mg/dL
  DBIL: 0.014 mg/dL
  GLC: 184 mg/dL
  K: 3.8 meq/L
  LDH: 70.6 IU/L
  Na: 142.6 meq/L
  PL: 141.8 mg/dL
  RALB: 2.6 g/dL
  TBIL: 0.048 mg/dL
  TC: 83 mg/dL
  TG: 68.4 mg/dL
  TP: 5.5 g/dL
  gamma-GTP: 1.6 IU/L
[2]
  TERMINAL_BW: 213.8 g
  APTT: 16.4 s
  Bas: 0%
  Eos: 1%
  Fbg: 327.6 mg/dL
  Hb: 13.3 g/dL
  Ht: 39%
  Lym: 72.8%
  MCH: 21.8 pg
  MCHC: 34%
  MCV: 63.9 fL
  Mono: 3.4%
  Neu: 22.2%
  PT: 12.9 s
  Plat: 104.3 x10_4/uL
  RBC: 609.8 x10_4/ul
  Ret: 8.3%
  WBC: 100.8 x10_2/uL
  KIDNEY_L: 0.9 g
  KIDNEY_R: 1 g
  KIDNEY_TOTAL: 1.9 g
  LIVER: 8.9 g
  ALP: 1394.4 IU/L
  ALT: 39.8 IU/L
  AST: 73.2 IU/L
  BUN: 8.6 mg/dL
  CRE: 0.2 mg/dL
  DBIL: 0.004 mg/dL
  GLC: 170.2 mg/dL
  K: 4 meq/L
  LDH: 52.4 IU/L
  Na: 142.6 meq/L
  PL: 136.4 mg/dL
  RALB: 2.5 g/dL
  TBIL: 0.038 mg/dL
  TC: 86.2 mg/dL
  TG: 41.8 mg/dL
  TP: 5.4 g/dL
  gamma-GTP: 1.2 IU/L
[3]
  TERMINAL_BW: 217.8 g
  APTT: 16.8 s
  Bas: 0%
  Eos: 0.8%
  Fbg: 288 mg/dL
  Hb: 13.4 g/dL
  Ht: 39.5%
  Lym: 80.6%
  MCH: 21.7 pg
  MCHC: 33.9%
  MCV: 64 fL
  Mono: 2.4%
  Neu: 15.4%
  PT: 13.5 s
  RBC: 617.2 x10_4/ul
  Ret: 7.6%
  WBC: 96.4 x10_2/uL
  KIDNEY_L: 0.9 g
  KIDNEY_R: 0.9 g
  KIDNEY_TOTAL: 1.8 g
  LIVER: 8.8 g
  ALP: 1362.6 IU/L
  ALT: 39.4 IU/L
  AST: 72.8 IU/L
  BUN: 10.2 mg/dL
  CRE: 0.2 mg/dL
  DBIL: 0.01 mg/dL
  GLC: 175.6 mg/dL
  K: 3.8 meq/L
  LDH: 49.8 IU/L
  Na: 143 meq/L
  PL: 133 mg/dL
  RALB: 2.6 g/dL
  TBIL: 0.046 mg/dL
  TC: 75.8 mg/dL
  TG: 67.6 mg/dL
  TP: 5.5 g/dL
  gamma-GTP: 1.2 IU/L
[4]
  TERMINAL_BW: 220.3 g
  APTT: 16.3 s
  Bas: 0%
  Eos: 1%
  Fbg: 294.8 mg/dL
  Hb: 13 g/dL
  Ht: 38%
  Lym: 78.2%
  MCH: 21.5 pg
  MCHC: 34.1%
  MCV: 63.1 fL
  Mono: 2.6%
  Neu: 17.4%
  PT: 12.8 s
  Plat: 119 x10_4/uL
  RBC: 603.2 x10_4/ul
  Ret: 7.9%
  WBC: 78.3 x10_2/uL
  KIDNEY_L: 0.9 g
  KIDNEY_R: 0.9 g
  KIDNEY_TOTAL: 1.9 g
  LIVER: 10.2 g
  ALP: 1641.6 IU/L
  ALT: 49.8 IU/L
  AST: 75.6 IU/L
  BUN: 15.8 mg/dL
  CRE: 0.2 mg/dL
  DBIL: 0.012 mg/dL
  GLC: 182.2 mg/dL
  K: 4.4 meq/L
  LDH: 59 IU/L
  Na: 141.8 meq/L
  PL: 150.8 mg/dL
  RALB: 2.7 g/dL
  TBIL: 0.03 mg/dL
  TC: 88.4 mg/dL
  TG: 82 mg/dL
  TP: 5.7 g/dL
  gamma-GTP: 1.2 IU/L
45 mg/kg, 3 h, dose level Low
  TERMINAL_BW: 214.4 g
  APTT: 16 s
  Bas: 0%
  Eos: 1%
  Fbg: 265.8 mg/dL
  Hb: 13 g/dL
  Ht: 38.2%
  Lym: 78.2%
  MCH: 22.2 pg
  MCHC: 33.9%
  MCV: 65.5 fL
  Mono: 3.2%
  Neu: 16.6%
  PT: 13.1 s
  Plat: 103.6 x10_4/uL
  RBC: 584 x10_4/ul
  Ret: 8.6%
  WBC: 63.4 x10_2/uL
  KIDNEY_L: 0.9 g
  KIDNEY_R: 0.9 g
  KIDNEY_TOTAL: 1.8 g
  LIVER: 9.7 g
  ALP: 1420.4 IU/L
  ALT: 42.2 IU/L
  AST: 70.8 IU/L
  BUN: 11.6 mg/dL
  CRE: 0.2 mg/dL
  DBIL: 0.014 mg/dL
  GLC: 190.2 mg/dL
  K: 3.8 meq/L
  LDH: 56.2 IU/L
  Na: 143 meq/L
  PL: 147.4 mg/dL
  RALB: 2.6 g/dL
  TBIL: 0.044 mg/dL
  TC: 83.6 mg/dL
  TG: 60.4 mg/dL
  TP: 5.4 g/dL
  gamma-GTP: 1 IU/L
45 mg/kg, 6 h, dose level Low
  TERMINAL_BW: 214.9 g
  APTT: 16.1 s
  Bas: 0%
  Eos: 1%
  Fbg: 287.6 mg/dL
  Hb: 12.8 g/dL
  Ht: 37.8%
  Lym: 75.6%
  MCH: 21.4 pg
  MCHC: 33.8%
  MCV: 63.3 fL
  Mono: 2.4%
  Neu: 20.6%
  PT: 13.1 s
  Plat: 116.3 x10_4/uL
  RBC: 596.4 x10_4/ul
  Ret: 8.2%
  WBC: 76.9 x10_2/uL
  KIDNEY_L: 0.9 g
  KIDNEY_R: 0.9 g
  KIDNEY_TOTAL: 1.9 g
  LIVER: 8.9 g
  ALP: 1402 IU/L
  ALT: 40.2 IU/L
  AST: 73 IU/L
  BUN: 9.6 mg/dL
  CRE: 0.2 mg/dL
  DBIL: 0.01 mg/dL
  GLC: 180.4 mg/dL
  K: 3.9 meq/L
  LDH: 46 IU/L
  Na: 142.8 meq/L
  PL: 135.8 mg/dL
  RALB: 2.5 g/dL
  TBIL: 0.038 mg/dL
  TC: 82.4 mg/dL
  TG: 50.6 mg/dL
  TP: 5.4 g/dL
  gamma-GTP: 1.2 IU/L
45 mg/kg, 9 h, dose level Low
  TERMINAL_BW: 212.6 g
  APTT: 16.8 s
  Bas: 0%
  Eos: 1%
  Fbg: 293.4 mg/dL
  Hb: 12.9 g/dL
  Ht: 38.5%
  Lym: 79.4%
  MCH: 21.3 pg
  MCHC: 33.7%
  MCV: 63.3 fL
  Mono: 1.8%
  Neu: 17.2%
  PT: 13.3 s
  Plat: 106.4 x10_4/uL
  RBC: 608.2 x10_4/ul
  Ret: 8.2%
  WBC: 70.4 x10_2/uL
  KIDNEY_L: 0.9 g
  KIDNEY_R: 0.9 g
  KIDNEY_TOTAL: 1.9 g
  LIVER: 8.1 g
  ALP: 1452.8 IU/L
  ALT: 43.6 IU/L
  AST: 69 IU/L
  BUN: 9.6 mg/dL
  CRE: 0.2 mg/dL
  DBIL: 0.008 mg/dL
  GLC: 184.2 mg/dL
  K: 3.9 meq/L
  LDH: 46.2 IU/L
  Na: 143.6 meq/L
  PL: 136 mg/dL
  RALB: 2.5 g/dL
  TBIL: 0.038 mg/dL
  TC: 81.8 mg/dL
  TG: 39.6 mg/dL
  TP: 5.3 g/dL
  gamma-GTP: 1 IU/L
45 mg/kg, 24 h, dose level Low
  TERMINAL_BW: 226.1 g
  APTT: 16.2 s
  Bas: 0%
  Eos: 1.2%
  Fbg: 284.4 mg/dL
  Hb: 13.5 g/dL
  Ht: 39.1%
  Lym: 78%
  MCH: 21.9 pg
  MCHC: 34.6%
  MCV: 63.3 fL
  Mono: 2.8%
  Neu: 17.6%
  PT: 12.8 s
  Plat: 112.9 x10_4/uL
  RBC: 618.6 x10_4/ul
  Ret: 8.2%
  WBC: 80.8 x10_2/uL
  KIDNEY_L: 1 g
  KIDNEY_R: 1 g
  KIDNEY_TOTAL: 1.9 g
  LIVER: 10.4 g
  ALP: 1933.8 IU/L
  ALT: 53.2 IU/L
  AST: 82.2 IU/L
  BUN: 14.8 mg/dL
  CRE: 0.2 mg/dL
  DBIL: 0.018 mg/dL
  GLC: 181.8 mg/dL
  K: 4.1 meq/L
  LDH: 87.4 IU/L
  Na: 142 meq/L
  PL: 150.8 mg/dL
  RALB: 2.7 g/dL
  TBIL: 0.032 mg/dL
  TC: 81.8 mg/dL
  TG: 119 mg/dL
  TP: 5.7 g/dL
  gamma-GTP: 1.2 IU/L
